Test results from patent publication USRE46630E1, “Substituted 4-pyridones and their use as inhibitors of neutrophil elastase activity” (Boehringer Ingelheim International GmbH, priority 2012, dated 2017).
pIC50: −log10 of the molar value.

Biological target: T1, Human neutrophil elastase (Homo sapiens, UniProt P08246)
T1 construct: purchased Calbiochem 324681
T1 sequence (P08246 30-267): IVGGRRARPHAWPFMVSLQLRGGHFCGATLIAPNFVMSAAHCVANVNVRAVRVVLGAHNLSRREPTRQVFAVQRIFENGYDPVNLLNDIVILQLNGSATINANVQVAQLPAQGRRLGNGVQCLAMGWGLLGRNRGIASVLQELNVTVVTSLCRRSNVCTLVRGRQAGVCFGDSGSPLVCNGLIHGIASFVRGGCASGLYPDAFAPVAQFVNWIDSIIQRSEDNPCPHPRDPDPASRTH
Experiment: Human Neutrophil Elastase Assay
Format: biochemical
Details: Neutrophil Elastase assay; substrate MeOSuc-Ala-Ala-Pro-Val-AMC 250 μM; 15 min preincubation, 60 min incubation at room temperature; pH 7.5
Procedure, shortened: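 Run in 100 mM Tris, 500 mM NaCl, pH 7.5 with 0.01% BSA, with compounds prediluted in DMSO then buffer (5% DMSO final). Fluorescence was read at 380 nm excitation/460 nm emission after enzyme inactivation. Values were normalised to inactivated-enzyme (0%) and uninhibited-enzyme (100%) controls.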

**Q.** CS(=O)(=O)c1ccc(CNC(=O)c2cn(Cc3ccc(C#N)cc3)cc(-c3cccc(C(F)(F)F)c3)c2=O)nc1 [Example 13.2, 1-(4-Cyano-benzyl)-4-oxo-5-(3-trifluoromethyl-phenyl)-1,4-dihydro-pyridine-3-carboxylic acid (5-methanesulfonyl-pyridin-2-ylmethyl)-amide] was tested. Which pIC50 did it give?
**A.** 8.28

**Q.** How did the pIC50 turn out when Cc1c(-c2cccc(C(F)(F)F)c2)c(=O)c(C(=O)NCc2ccc(S(C)(=O)=O)c[n+]2[O-])cn1Cc1ccc(C#N)cc1 [Example 14, Pyridin-N-oxide of example 4.1] was run?
**A.** > 9.00

**Q.** CNC(=O)c1cn(C(C)c2ccc(C#N)cn2)c(C)c(-c2cccc(C(F)F)c2)c1=O (stereo not shown) [Example 16, 1-[1-(5-Cyano-pyridin-2-yl)-ethyl]-5-(3-difluoromethyl-phenyl)-6-methyl-4-oxo-1,4-dihydro-pyridine-3-carboxylic acid methylamide] was tested. Which pIC50 did it give?
**A.** 8.00

**Q.** CCNC(=O)c1cn(C(C)c2ccc(C#N)cn2)c(C)c(-c2cccc(C(F)(F)F)c2)c1=O (stereo not shown) [Example 17, 1-[1-(5-Cyano-pyridin-2-yl)-ethyl]-6-methyl-4-oxo-5-(3-trifluoromethyl-phenyl)-1,4-dihydro-pyridine-3-carboxylic acid ethylamide] was tested. Which pIC50 did it give?
**A.** 8.35

**Q.** CCNC(=O)c1cn(C(C)c2ccc(C#N)cn2)c(C)c(-c2cccc(C(F)F)c2)c1=O (stereo not shown) [Example 18, 1-[1-(5-Cyano-pyridin-2-yl)-ethyl]-5-(3-difluoromethyl-phenyl)-6-methyl-4-oxo-1,4-dihydro-pyridine-3-carboxylic acid ethylamide] was tested. Which pIC50 did it give?
**A.** 8.27

**Q.** How did the pIC50 turn out when CCNC(=O)c1cn(C(C)c2ccc(C#N)cn2)c(C)c(-c2ccnc(C(F)(F)F)c2)c1=O (stereo not shown) [Example 19, 1-[1-(5-Cyano-pyridin-2-yl)-ethyl]-2-methyl-4-oxo-2′-trifluoromethyl-1,4-dihydro-[3,4′]bipyridinyl-5-carboxylic acid ethylamide] was run?
**A.** 7.65

**Q.** CNC(=O)c1cn(Cc2ccc(C#N)cc2S(C)(=O)=O)c(C)c(-c2cccc(C(F)(F)F)c2)c1=O [Example 20] was tested. Which pIC50 did it give?
**A.** 8.07

**Q.** With CCNC(=O)c1cn(Cc2ccc(C#N)cc2S(C)(=O)=O)c(C)c(-c2cccc(C(F)(F)F)c2)c1=O [Example 21] as the molecule, how does the pIC50 read?
**A.** 8.34

**Q.** With Cc1nnc(CNC(=O)c2cn(Cc3ccc(C#N)cc3S(C)(=O)=O)c(C)c(-c3cccc(C(F)(F)F)c3)c2=O)o1 [Example 22] as the molecule, how does the pIC50 read?
**A.** 8.55

**Q.** Cc1c(-c2cccc(C(F)(F)F)c2)c(=O)c(C(=O)NCCCO)cn1Cc1ccc(C#N)cc1S(C)(=O)=O [Example 23] was tested. Which pIC50 did it give?
**A.** 8.36

**Q.** Cc1noc(CNC(=O)c2cn(Cc3ccc(C#N)cc3S(C)(=O)=O)c(C)c(-c3cccc(C(F)(F)F)c3)c2=O)n1 [Example 24] was tested. Which pIC50 did it give?
**A.** 8.32

**Q.** How did the pIC50 turn out when CCCS(=O)(=O)c1cc(C#N)ccc1Cn1cc(C(=O)NC)c(=O)c(-c2cccc(C(F)(F)F)c2)c1C [Example 25, 1-[4-Cyano-2-(propane-1-sulfonyl)-benzyl]-6-methyl-4-oxo-5-(3-trifluoromethyl-phenyl)-1,4-dihydro-pyridine-3-carboxylic acid methylamide] was run?
**A.** 7.85

**Q.** How did the pIC50 turn out when CCS(=O)(=O)c1cc(C#N)ccc1Cn1cc(C(=O)NC)c(=O)c(-c2cccc(C(F)(F)F)c2)c1C [Example 26] was run?
**A.** 7.97

**Q.** How did the pIC50 turn out when CNC(=O)c1cn(Cc2ccc(C#N)cc2S(=O)(=O)C2CC2)c(C)c(-c2cccc(C(F)(F)F)c2)c1=O [Example 27] was run?
**A.** 8.09

**Q.** CNC(=O)c1cn(C(C)c2ccc(C#N)cc2)c(C)c(-c2ccc(F)c(C(F)F)c2)c1=O (stereo not shown) [Example 28] was tested. Which pIC50 did it give?
**A.** 7.88

**Q.** With CNC(=O)c1cn(C(C)c2ccc(C#N)cc2)c(C)c(-c2cccc(C)c2)c1=O (stereo not shown) [Example 29] as the molecule, how does the pIC50 read?
**A.** 7.84

**Q.** How did the pIC50 turn out when CNC(=O)c1cn(C(C)c2ccc(C#N)cc2)c(C)c(-c2ccc(F)c(C(F)(F)F)c2)c1=O (stereo not shown) [Example 30] was run?
**A.** 8.28

**Q.** CNC(=O)c1cn(C(C)c2ccc(C#N)cc2)c(C)c(-c2cccc(CF)c2)c1=O (stereo not shown) [Example 31, 1-[1-(4-Cyano-phenyl)-ethyl]-5-(3-fluoromethyl-phenyl)-6-methyl-4-oxo-1,4-dihydro-pyridine-3-carboxylic acid methylamide] was tested. Which pIC50 did it give?
**A.** 8.11

**Q.** CNC(=O)c1cn(Cc2ccc(C#N)cc2F)c(C)c(-c2cccc(C(F)F)c2)c1=O [Example 32] was tested. Which pIC50 did it give?
**A.** 7.93

**Q.** How did the pIC50 turn out when CNC(=O)c1cn(Cc2ccc(C#N)c(F)c2)c(C)c(-c2cccc(C(F)F)c2)c1=O [Example 33] was run?
**A.** 7.85

**Q.** CNC(=O)c1cn(Cc2ccc(C#N)cn2)c(C)c(-c2cccc(C(F)F)c2)c1=O [Example 34] was tested. Which pIC50 did it give?
**A.** 7.51

**Q.** CCNC(=O)c1cn(C(CC)c2ccc(C#N)cc2)c(C)c(-c2cccc(C(F)(F)F)c2)c1=O (stereo not shown) [Example 35, 1-[1-(4-Cyano-phenyl)-propyl]-6-methyl-4-oxo-5-(3-trifluoromethyl-phenyl)-1,4-dihydro-pyridine-3-carboxylic acid ethylamide] was tested. Which pIC50 did it give?
**A.** 8.11

**Q.** How did the pIC50 turn out when CCC(c1ccc(C#N)cc1)n1cc(C(=O)NC)c(=O)c(-c2ccnc(C(F)(F)F)c2)c1C (stereo not shown) [Example 36, 1-[1-(4-Cyano-phenyl)-propyl]-2-methyl-4-oxo-2′-trifluoromethyl-1,4-dihydro-[3,4′]bipyridinyl-5-carboxylic acid methylamide] was run?
**A.** 7.74

**Q.** How did the pIC50 turn out when CNC(=O)c1cn(C2CCc3cc(C#N)ccc32)c(C)c(-c2cccc(C(F)(F)F)c2)c1=O (stereo not shown) [Example 37, 1-(5-Cyano-indan-1-yl)-6-methyl-4-oxo-5-(3-trifluoromethyl-phenyl)-1,4-dihydro-pyridine-3-carboxylic acid methylamide] was run?
**A.** 7.86

**Q.** With CCNC(=O)c1cn(C(C)c2ccc(C#N)cc2)c(C)c(-c2ccnc(C(F)F)c2)c1=O (stereo not shown) [Example 38, 1-[1-(4-Cyano-phenyl)-ethyl]-2′-difluoromethyl-2-methyl-4-oxo-1,4-dihydro-[3,4′]bipyridinyl-5-carboxylic acid ethylamide] as the molecule, how does the pIC50 read?
**A.** 7.96

**Q.** How did the pIC50 turn out when Cc1c(-c2cccc(C(F)F)c2)c(=O)c(C(=O)NCc2ccc(S(C)(=O)=O)cc2)cn1Cc1ccc(C#N)c(F)c1 [Example 39, 1-(4-Cyano-3-fluoro-benzyl)-5-(3-difluoromethyl-phenyl)-6-methyl-4-oxo-1,4-dihydro-pyridine-3-carboxylic acid 4-methanesulfonyl-benzylamide] was run?
**A.** > 9.00

**Q.** Cc1c(-c2cccc(C(F)F)c2)c(=O)c(C(=O)NCc2ccc(S(C)(=O)=O)cc2)cn1Cc1ccc(C#N)cn1 [Example 40, 1-(5-Cyano-pyridin-2-ylmethyl)-5-(3-difluoromethyl-phenyl)-6-methyl-4-oxo-1,4-dihydro-pyridine-3-carboxylic acid 4-methanesulfonyl-benzylamide] was tested. Which pIC50 did it give?
**A.** > 9.00

**Q.** Cc1c(-c2cccc(C(F)F)c2)c(=O)c(C(=O)NCc2ccc(S(C)(=O)=O)cc2)cn1Cc1ccc(C#N)cc1F [Example 41, 1-(4-Cyano-2-fluoro-benzyl)-5-(3-difluoromethyl-phenyl)-6-methyl-4-oxo-1,4-dihydro-pyridine-3-carboxylic acid 4-methanesulfonyl-benzylamide] was tested. Which pIC50 did it give?
**A.** > 9.00

**Q.** CNC(=O)c1cn(Cc2ccc(C#N)cc2F)c(C)c(-c2ccnc(C(F)(F)F)c2)c1=O [Example 42, 1-(4-Cyano-2-fluoro-benzyl)-2-methyl-4-oxo-2′-trifluoromethyl-1,4-dihydro-[3,4′]bipyridinyl-5-carboxylic acid methylamide] was tested. Which pIC50 did it give?
**A.** 7.34

**Q.** CNC(=O)c1cn(Cc2ccc(C#N)c(F)c2)c(C)c(-c2ccnc(C(F)(F)F)c2)c1=O [Example 43, 1-(4-Cyano-3-fluoro-benzyl)-2-methyl-4-oxo-2′-trifluoromethyl-1,4-dihydro-[3,4′]bipyridinyl-5-carboxylic acid methylamide] was tested. Which pIC50 did it give?
**A.** 7.32

**Q.** How did the pIC50 turn out when CNC(=O)c1cn(Cc2ccc(C#N)cn2)c(C)c(-c2ccnc(C(F)(F)F)c2)c1=O [Example 44, 1-(5-Cyano-pyridin-2-ylmethyl)-2-methyl-4-oxo-2′-trifluoromethyl-1,4-dihydro-[3,4′]bipyridinyl-5-carboxylic acid methylamide] was run?
**A.** 7.02

**Q.** Cc1c(-c2cccc(C(F)(F)F)c2)c(=O)c(C(=O)NCc2ccc(S(C)(=O)=O)cc2)cn1C1(c2ccc(C#N)cc2)CC1 [Example 45, 1-[1-(4-Cyano-phenyl)-cyclopropyl]-6-methyl-4-oxo-5-(3-trifluoromethyl-phenyl)-1,4-dihydro-pyridine-3-carboxylic acid 4-methanesulfonyl-benzylamide] was tested. Which pIC50 did it give?
**A.** 8.34

**Q.** How did the pIC50 turn out when Cc1c(-c2cccc(C(F)(F)F)c2)c(=O)c(C(=O)NCC#N)cn1Cc1ccc(C#N)cc1 [Example 46, 1-(4-Cyano-benzyl)-6-methyl-4-oxo-5-(3-trifluoromethyl-phenyl)-1,4-dihydro-pyridine-3-carboxylic acid cyanomethyl-amide] was run?
**A.** 8.64

**Q.** How did the pIC50 turn out when COCCNC(=O)c1cn(C(C)c2ccc(C#N)cn2)c(C)c(-c2cccc(C(F)(F)F)c2)c1=O (stereo not shown) [Example 47.1] was run?
**A.** 7.89

**Q.** How did the pIC50 turn out when Cc1c(-c2cccc(C(F)(F)F)c2)c(=O)c(C(=O)NC2CCNC2=O)cn1C(C)c1ccc(C#N)cn1 (stereo not shown) [Example 47.2] was run?
**A.** 8.14

**Q.** Cc1c(-c2cccc(C(F)(F)F)c2)c(=O)c(C(=O)NCC(F)(F)F)cn1C(C)c1ccc(C#N)cn1 (stereo not shown) [Example 47.3] was tested. Which pIC50 did it give?
**A.** 7.97

**Q.** Cc1c(-c2cccc(C(F)(F)F)c2)c(=O)c(C(=O)NCCC(C)O)cn1C(C)c1ccc(C#N)cn1 (stereo not shown) [Example 47.4] was tested. Which pIC50 did it give?
**A.** 7.91

**Q.** With Cc1c(-c2cccc(C(F)(F)F)c2)c(=O)c(C(=O)NCC2CC2)cn1C(C)c1ccc(C#N)cn1 (stereo not shown) [Example 47.5] as the molecule, how does the pIC50 read?
**A.** 7.78

**Q.** Cc1c(-c2cccc(C(F)(F)F)c2)c(=O)c(C(=O)NCCF)cn1C(C)c1ccc(C#N)cn1 (stereo not shown) [Example 47.6] was tested. Which pIC50 did it give?
**A.** 7.92

**Q.** With Cc1c(-c2cccc(C(F)(F)F)c2)c(=O)c(C(=O)NCC2(O)CC2)cn1C(C)c1ccc(C#N)cn1 (stereo not shown) [Example 47.7] as the molecule, how does the pIC50 read?
**A.** 7.52
